Results on 69 compounds are retold here after patent US11759461B2, “Small molecule inhibitors of cancer stem cells and mesenchymal cancer types” (The Scripps Research Institute, priority 2017, dated 2023).

A value given as a limit tells only on which side of the number the result lay.

In this experiment the test system is FOXC2-expressing HMLER cells. The experiment is described as follows: Cell Titer Glo viability of FOXC2-HMLER cells (high throughput screen and 10-point response). The conditions noted are these: Homo sapiens; scored relative to parent compound 2; 72 hours; read-out: Activity Score, inhibition of FOXC2-expressing HMLER cells by Formula II compounds. It counts as cell-based. In a few lines: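 Viability after 72 h compound exposure was measured as Cell Titer Glo luminescence. FOXC2-HMLER and parental HMLER cells, 1,000 per well in MEGM medium, were dosed 1 h after plating; screening concentration was 2 μM.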
(In general: In ATP-based viability assays light output follows the ATP content of the culture.)

As to `COc1ccccc1NC(=O)Cn1c(=O)c(CNc2ccccc2)cc2cc3c(cc21)OCCO3` [Compound 2EF], the IC50 was more than 20 µM.
As for `COc1ccc2cc(CNc3ccccc3)c(=O)n(CC(=O)Nc3ccc4c(c3)OCCO4)c2c1` [Compound 2EG], the figure is more than 20 µM; as for `COc1cc2cc(CNc3ccccc3)c(=O)n(CC(=O)Nc3cccc(C)c3)c2cc1OC` [Compound 2EH], more than 20 µM; as for `COc1ccc(NC(=O)Cn2c(=O)c(CNc3ccc(C)cc3)cc3ccc(OC)cc32)cc1` [Compound 2EI], more than 20 µM.
Turning to `COc1ccc2cc(CNc3ccccc3)c(=O)n(CC(=O)Nc3ccc(F)c(F)c3)c2c1` [Compound 2EJ], the IC50 is more than 20 µM.
In the case of `CCc1ccc(NCc2cc3ccc(OC)cc3n(CC(=O)Nc3ccc(C(C)C)cc3)c2=O)cc1` [Compound 2EK], the IC50 is more than 20 µM.
Next, `COc1ccc2cc(CNc3ccc(C)cc3)c(=O)n(CC(=O)Nc3cccc(C)c3)c2c1` [Compound 2EL]: more than 20 µM; `COc1ccc(NCc2cc3cc(OC)c(OC)cc3n(CC(=O)Nc3ccccc3C)c2=O)cc1` [Compound 2EM]: more than 20 µM; `COc1ccc2cc(CNc3ccccc3)c(=O)n(CC(=O)Nc3ccc(C)cc3C)c2c1` [Compound 2EN]: more than 20 µM.
Next, `COc1ccc(NCc2cc3ccc(OC)cc3n(CC(=O)Nc3ccc(C)c(Cl)c3)c2=O)cc1` [Compound 2EO]: more than 20 µM.
Next, `COc1cc2cc(CNc3ccccc3)c(=O)n(CC(=O)Nc3ccccc3)c2cc1OC` [Compound 2EP]: more than 20 µM; `O=C(Cn1c(=O)c(CNc2ccccc2)cc2cc3c(cc21)OCCO3)Nc1ccccc1` [Compound 2EQ]: more than 20 µM; `COc1ccc2cc(CNc3ccc(C)cc3)c(=O)n(CC(=O)Nc3ccc(C(C)C)cc3)c2c1` [Compound 2ER]: more than 20 µM.
As to `COc1ccccc1NC(=O)Cn1c(=O)c(CNc2ccccc2)cc2cc(OC)c(OC)cc21` [Compound 2ES], the IC50 was more than 20 µM.
For `COc1ccc2cc(CNc3ccccc3)c(=O)n(CC(=O)Nc3ccc(C)cc3)c2c1` [Compound 2ET], the IC50 was more than 20 µM.
Consider `COc1cccc(NC(=O)Cn2c(=O)c(CNc3ccc(OC)c(OC)c3)cc3ccc(C)cc32)c1` [Compound 2EU], for which the IC50 was more than 20 µM.
Next, `COc1ccc(NCc2cc3ccc(OC)cc3n(CC(=O)Nc3cccc(Cl)c3)c2=O)cc1` [Compound 2EV]: more than 20 µM; `COc1ccc2cc(CNc3ccccc3)c(=O)n(CC(=O)Nc3cc(F)ccc3F)c2c1` [Compound 2EW]: more than 20 µM.
For `COc1ccc2cc(CNc3ccccc3)c(=O)n(CC(=O)Nc3cccc(C(C)=O)c3)c2c1` [Compound 2EX], the IC50 was more than 20 µM.
Next, `Cc1ccc(NCc2cc3cc4c(cc3n(CC(=O)Nc3ccc(C)cc3C)c2=O)OCCO4)cc1` [Compound 2EY]: more than 20 µM.
As for `COc1ccc2cc(CNc3ccccc3)c(=O)n(CC(=O)Nc3cccc(Cl)c3C)c2c1` [Compound 2EZ], the figure is more than 20 µM; as for `CCOc1ccc(NC(=O)Cn2c(=O)c(CNc3ccc(C)cc3)cc3ccc(OC)cc32)cc1` [Compound 2E], 1 to 20 µM; as for `COc1ccc2cc(CNc3ccccc3)c(=O)n(CC(=O)Nc3cccc(SC)c3)c2c1` [Compound 2FA], more than 20 µM.
As for `CCc1ccc(NC(=O)Cn2c(=O)c(CNc3ccc(C)cc3)cc3cc(OC)c(OC)cc32)cc1` [Compound 2FB], the figure is more than 20 µM.
With `COc1ccc2cc(CNc3ccc(C)cc3)c(=O)n(CC(=O)Nc3cc(Cl)ccc3C)c2c1` [Compound 2FC], the IC50 is more than 20 µM.
As for `COc1ccc(NCc2cc3ccc(OC)cc3n(CC(=O)Nc3cc(Cl)ccc3C)c2=O)cc1` [Compound 2FD], the figure is more than 20 µM; as for `COc1cc2cc(CNc3ccccc3)c(=O)n(CC(=O)Nc3ccc(C)c(C)c3)c2cc1OC` [Compound 2FE], more than 20 µM; as for `COc1cc2cc(CNc3ccc(C)cc3)c(=O)n(CC(=O)Nc3ccccc3C)c2cc1OC` [Compound 2FF], more than 20 µM.
Regarding `O=C(Cn1c(=O)c(CNc2ccccc2)cc2cc3c(cc21)OCCO3)Nc1ccc2c(c1)OCCO2` [Compound 2FG], the IC50 is more than 20 µM.
As for `COc1cc2cc(CNc3ccc(C)cc3)c(=O)n(CC(=O)Nc3ccc(Cl)cc3)c2cc1OC` [Compound 2FH], the figure is more than 20 µM.
On to `COc1ccc2cc(CNc3ccc(C)cc3)c(=O)n(CC(=O)Nc3ccc(C)c(F)c3)c2c1` [Compound 2FI], for which the IC50 is more than 20 µM.
Next, `CCc1ccccc1NC(=O)Cn1c(=O)c(CNc2ccc(C)cc2)cc2ccc(OC)cc21` [Compound 2FJ]: more than 20 µM; `COc1ccc2cc(CNc3ccc(OC)c(OC)c3)c(=O)n(CC(=O)Nc3cccc(C)c3)c2c1` [Compound 2FK]: more than 20 µM; `CCc1cccc(NC(=O)Cn2c(=O)c(CNc3ccc(C)cc3)cc3ccc(OC)cc32)c1` [Compound 2FL]: more than 20 µM.
Regarding `COc1cccc(NC(=O)Cn2c(=O)c(CNc3ccccc3)cc3ccc(C)cc32)c1` [Compound 2FM], the IC50 is more than 20 µM.
Next, `COc1ccc2cc(CNc3ccc(C)cc3)c(=O)n(CC(N)=O)c2c1` [Compound 2FN]: more than 20 µM; `CCc1ccc(NCc2cc3ccc(OC)cc3n(CC(=O)Nc3cccc(F)c3)c2=O)cc1` [Compound 2FO]: more than 20 µM; `COc1cc2cc(CNc3ccccc3)c(=O)n(CC(=O)Nc3ccc(Cl)cc3)c2cc1OC` [Compound 2FP]: more than 20 µM.
As for `Cc1ccc(C)c(NC(=O)Cn2c(=O)c(CNc3ccccc3)cc3cc4c(cc32)OCCO4)c1` [Compound 2FQ], the figure is more than 20 µM; as for `CCc1ccc(NCc2cc3ccc(OC)cc3n(CC(=O)Nc3ccc4c(c3)OCCO4)c2=O)cc1` [Compound 2FR], more than 20 µM; as for `COc1cc2cc(CNc3ccccc3)c(=O)n(CC(=O)Nc3ccccc3Cl)c2cc1OC` [Compound 2FS], more than 20 µM.
As for `CCc1ccc(NCc2cc3ccc(OC)cc3n(CC(=O)Nc3cccc(OC)c3)c2=O)cc1` [Compound 2FT], the IC50 is more than 20 µM.
`COc1cc2cc(CNc3ccc(C)cc3)c(=O)n(CC(=O)Nc3ccccc3)c2cc1OC` [Compound 2FU]: the IC50 is more than 20 µM.
Next, `COc1ccc2cc(CNc3ccc(C)cc3)c(=O)n(CC(=O)Nc3ccccc3)c2c1` [Compound 2FV]: more than 20 µM; `Cc1ccc(NCc2cc3cc4c(cc3n(CC(=O)Nc3ccc(C)cc3)c2=O)OCCO4)cc1` [Compound 2FW]: more than 20 µM.
Next, `COc1ccc(NCc2cc3ccc(OC)cc3n(CC(=O)Nc3ccc(C)c(C)c3)c2=O)cc1` [Compound 2FX]: more than 20 µM; `COc1cc2cc(CNc3ccc(C)cc3)c(=O)n(CC(=O)Nc3ccc(C)cc3)c2cc1OC` [Compound 2FY]: more than 20 µM.
With `COc1ccc(CNC(=O)Cn2c(=O)c(CNc3ccc(C)cc3)cc3ccc(OC)cc32)cc1` [Compound 2FZ], the IC50 was more than 20 µM.
As for `COc1ccc(NCc2cc3ccc(C)cc3n(CC(=O)Nc3ccc(C)cc3C)c2=O)cc1OC` [Compound 2F], the figure is 1 to 20 µM.
On to `CCc1ccc(NCc2cc3cc4c(cc3n(CC(=O)Nc3cccc(OC)c3)c2=O)OCCO4)cc1` [Compound 2GA], for which the IC50 was more than 20 µM.
As for `CCc1ccc(NCc2cc3ccc(OC)cc3n(CC(=O)Nc3ccc(Cl)cc3)c2=O)cc1` [Compound 2GB], the figure is more than 20 µM.
In the case of `COc1cccc(NC(=O)Cn2c(=O)c(CNc3ccc(C)cc3)cc3cc4c(cc32)OCCO4)c1` [Compound 2GC], the IC50 is more than 20 µM.
Next, `COc1ccc(NCc2cc3cc4c(cc3n(CC(=O)Nc3ccc(C)c(C)c3)c2=O)OCCO4)cc1` [Compound 2GD]: more than 20 µM; `COc1ccc(NC(=O)Cn2c(=O)c(CNc3ccccc3)cc3ccc(C)cc32)cc1OC` [Compound 2GE]: more than 20 µM.
`COc1ccc2cc(CNc3ccc(C)cc3)c(=O)n(CC(=O)Nc3cccc(C(C)=O)c3)c2c1` [Compound 2GF]: the IC50 is more than 20 µM.
Turning to `COc1cc2cc(CNc3ccccc3)c(=O)n(CC(=O)Nc3cc(C)cc(C)c3)c2cc1OC` [Compound 2GG], the IC50 is more than 20 µM.
Next, `COc1ccc2cc(CNc3ccc(C)cc3)c(=O)n(CC(=O)Nc3cccc(SC)c3)c2c1` [Compound 2GH]: more than 20 µM; `CCOc1ccc(NC(=O)Cn2c(=O)c(CNc3ccccc3)cc3cc(OC)c(OC)cc32)cc1` [Compound 2GI]: more than 20 µM.
Turning to `Cc1ccc(NC(=O)Cn2c(=O)c(CNc3ccccc3)cc3cc4c(cc32)OCCO4)cc1` [Compound 2GJ], the IC50 was more than 20 µM.
Next, `COc1ccc(NCc2cc3ccc(OC)cc3n(CC(=O)Nc3ccccc3OC)c2=O)cc1` [Compound 2GK]: more than 20 µM; `CCc1ccc(NCc2cc3ccc(OC)cc3n(CC(=O)NCCc3ccccc3)c2=O)cc1` [Compound 2GL]: more than 20 µM; `CCOC(=O)c1ccc(NC(=O)Cn2c(=O)c(CNc3ccc(C)cc3)cc3ccc(OC)cc32)cc1` [Compound 2GM]: more than 20 µM.
Next, `Cc1ccccc1NC(=O)Cn1c(=O)c(CNc2ccccc2)cc2cc3c(cc21)OCCO3` [Compound 2GN]: more than 20 µM; `COc1ccc(NC(=O)Cn2c(=O)c(CNc3ccccc3)cc3cc4c(cc32)OCCO4)cc1` [Compound 2GO]: more than 20 µM.
Next, `COc1ccc2cc(CNc3ccc(C)cc3)c(=O)n(CC(=O)NCc3ccc(C)cc3)c2c1` [Compound 2GP]: more than 20 µM.
Consider `COc1ccc2cc(CNc3ccccc3)c(=O)n(CC(=O)NCc3ccc(C)cc3)c2c1` [Compound 2GQ], for which the IC50 was more than 20 µM.
In the case of `COc1ccc(NCc2cc3ccc(OC)cc3n(CC(=O)Nc3ccc(C)cc3Cl)c2=O)cc1` [Compound 2GR], the IC50 was more than 20 µM.
Take `CCc1ccc(NCc2cc3ccc(OC)cc3n(CC(=O)Nc3cc(Cl)ccc3C)c2=O)cc1` [Compound 2GS]: the IC50 was more than 20 µM.
Next, `COc1ccc2cc(CNc3ccc(C)cc3)c(=O)n(CC(=O)NCc3ccccc3)c2c1` [Compound 2GT]: more than 20 µM.
